SMILES strings stand for the structures. pIC50: −log10 of the molar value. Positions of bridges follow the written chain, without caps; N, C: chain ends. Non-standard residues stand in square brackets, D forms with d. Residues, ends and D or L forms follow the SMILES beside them. Cit = NC(=O)NCCC[C@H](N)C(=O)O; Ahp(2) = CCCCC[C@H](N)C(=O)O; NMeNle = CCCC[C@H](NC)C(=O)O; Tle = CC(C)(C)[C@H](N)C(=O)O; NHexGly = CCCCCCNCC(=O)O; Nle = CCCC[C@H](N)C(=O)O

For the assay, the target named is T1, mouse VISTA (mVISTA) (Mus musculus, UniProt Q9D659).
T1 construct: expressed in transfected cells; host or cells: Human embryonic kidney 293T cells
T1 sequence (Q9D659 33-308): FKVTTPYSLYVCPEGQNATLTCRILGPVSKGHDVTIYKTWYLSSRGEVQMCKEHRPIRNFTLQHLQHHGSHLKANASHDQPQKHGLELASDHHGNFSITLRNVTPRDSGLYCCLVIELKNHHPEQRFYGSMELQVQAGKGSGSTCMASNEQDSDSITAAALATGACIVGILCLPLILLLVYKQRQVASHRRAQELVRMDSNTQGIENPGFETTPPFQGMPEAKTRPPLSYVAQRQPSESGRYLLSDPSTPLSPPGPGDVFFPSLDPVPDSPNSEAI
The experiment in a line: Cell-Based Binding High-Content Assay For mVISTA (HC CBA mVISTA). Particulars: read-out: HC CBA mVISTA IC50. In outline:
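293T cells expressing mouse VISTA, with compounds added either after seeding ("no wash") or before seeding and then washed out after 1 h. Biotinylated peptide 2 nM for 30 min at room temperature, then detection with Alexa 647–streptavidin. After fixation with Hoechst stain, plates were high-content imaged; IC50 from four-parameter logistic fit.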
In the case of `CCCCCCN1CC(=O)N[C@@H](Cc2ccc(O)cc2)C(=O)N[C@@H](CCCC)C(=O)N[C@@H](CC(=O)O)C(=O)N[C@@H](CCCNC(=N)N)C(=O)N(C)[C@@H](CCCC)C(=O)N[C@@H](CCCCC)C(=O)N2CCC[C@H]2C(=O)N[C@@H](C(C)(C)C)C(=O)N[C@@H](CC(=O)O)C(=O)N[C@H](C(=O)N[C@@H](CC(=O)O)C(N)=O)CSCC(=O)N[C@@H](Cc2ccccc2)C(=O)N[C@@H](Cc2c[nH]c3ccccc23)C(=O)N[C@@H](CC(=O)O)C1=O` [Example 1377] ({CH2CO}-FWD[NHexGly]Y[Nle]DR[NMeNle][Ahp(2)]P[Tle]DCD-NH2; thioether N-14), the pIC50 is 7.65.
On to `CCCCCCN1CC(=O)N[C@@H](Cc2ccc(O)cc2)C(=O)N[C@@H](CCCC)C(=O)N[C@@H](CC(N)=O)C(=O)N[C@@H](CCCNC(=N)N)C(=O)N(C)[C@@H](CCCC)C(=O)N[C@@H](CCCCC)C(=O)N2CCC[C@H]2C(=O)N[C@@H](C(C)(C)C)C(=O)N[C@@H](CO)C(=O)N[C@H](C(=O)N[C@@H](CC(=O)O)C(N)=O)CSCC(=O)N[C@@H](Cc2ccccc2)C(=O)N[C@@H](Cc2c[nH]c3ccccc23)C(=O)N[C@@H](CC(=O)O)C1=O` [Example 1378] ({CH2CO}-FWD[NHexGly]Y[Nle]NR[NMeNle][Ahp(2)]P[Tle]SCD-NH2; thioether N-14), for which the pIC50 is 7.38.
The result for `CCCCCCN1CC(=O)N[C@@H](Cc2ccc(O)cc2)C(=O)N[C@@H](CCCC)C(=O)N[C@@H](CC(N)=O)C(=O)N[C@@H](CCCNC(=N)N)C(=O)N(C)[C@@H](CCCC)C(=O)N[C@@H](CCCCC)C(=O)N2CCC[C@H]2C(=O)N[C@@H](C(C)C)C(=O)N[C@@H](CC(=O)O)C(=O)N[C@H](C(=O)NCC(=O)O)CSCC(=O)N[C@@H](Cc2ccccc2)C(=O)N[C@@H](Cc2c[nH]c3ccccc23)C(=O)N[C@@H](CC(=O)O)C1=O` [Example 1379] ({CH2CO}-FWD[NHexGly]Y[Nle]NR[NMeNle][Ahp(2)]PVDCG-OH; thioether N-14) reads 8.23.
The result for `CCCCCCN1CC(=O)N[C@@H](Cc2ccc(O)cc2)C(=O)N[C@@H](CCCC)C(=O)N[C@@H](CC(N)=O)C(=O)N[C@@H](CCCNC(=N)N)C(=O)N(C)[C@@H](CCCC)C(=O)N[C@@H](CCCCC)C(=O)N2CCC[C@H]2C(=O)N[C@@H](C(C)C)C(=O)N[C@@H](CCCNC(=N)N)C(=O)N[C@H](C(=O)NCC(=O)O)CSCC(=O)N[C@@H](Cc2ccccc2)C(=O)N[C@@H](Cc2c[nH]c3ccccc23)C(=O)N[C@@H](CC(=O)O)C1=O` [Example 1380] ({CH2CO}-FWD[NHexGly]Y[Nle]NR[NMeNle][Ahp(2)]PVRCG-OH; thioether N-14) reads 7.92; that for `CCCCCCN1CC(=O)N[C@@H](Cc2ccc(O)cc2)C(=O)N[C@@H](CCCC)C(=O)N[C@@H](CC(N)=O)C(=O)N[C@@H](CCCNC(=N)N)C(=O)N(C)[C@@H](CCCC)C(=O)N[C@@H](CCCCC)C(=O)N2CCC[C@H]2C(=O)N[C@@H](C(C)C)C(=O)N[C@@H](CC(N)=O)C(=O)N[C@H](C(=O)NCC(=O)O)CSCC(=O)N[C@@H](Cc2ccccc2)C(=O)N[C@@H](Cc2c[nH]c3ccccc23)C(=O)N[C@@H](CC(=O)O)C1=O` [Example 1381] ({CH2CO}-FWD[NHexGly]Y[Nle]NR[NMeNle][Ahp(2)]PVNCG-OH; thioether N-14), 7.69.
The result for `CCCCCCN1CC(=O)N[C@@H](Cc2ccc(O)cc2)C(=O)N[C@@H](CCCC)C(=O)N[C@@H](CC(N)=O)C(=O)N[C@@H](CCCNC(=N)N)C(=O)N(C)[C@@H](CCCC)C(=O)N[C@@H](CCCCC)C(=O)N2CCC[C@H]2C(=O)N[C@@H](C(C)C)C(=O)N[C@@H](CO)C(=O)N[C@H](C(=O)NCC(=O)O)CSCC(=O)N[C@@H](Cc2ccccc2)C(=O)N[C@@H](Cc2c[nH]c3ccccc23)C(=O)N[C@@H](CC(=O)O)C1=O` [Example 1382] ({CH2CO}-FWD[NHexGly]Y[Nle]NR[NMeNle][Ahp(2)]PVSCG-OH; thioether N-14) reads 7.76; that for `CCCCCCN1CC(=O)N[C@@H](Cc2ccc(O)cc2)C(=O)N[C@@H](CCCC)C(=O)N[C@@H](CC(N)=O)C(=O)N[C@@H](CCCNC(=N)N)C(=O)N(C)[C@@H](CCCC)C(=O)N[C@@H](CCCCC)C(=O)N2CCC[C@H]2C(=O)N[C@@H](C(C)C)C(=O)N[C@@H](C(C)C)C(=O)N[C@H](C(=O)NCC(=O)O)CSCC(=O)N[C@@H](Cc2ccccc2)C(=O)N[C@@H](Cc2c[nH]c3ccccc23)C(=O)N[C@@H](CC(=O)O)C1=O` [Example 1383] ({CH2CO}-FWD[NHexGly]Y[Nle]NR[NMeNle][Ahp(2)]PVVCG-OH; thioether N-14), 7.77; that for `CCCCCCN1CC(=O)N[C@@H](Cc2ccc(O)cc2)C(=O)N[C@@H](CCCCC)C(=O)N[C@@H](CC(N)=O)C(=O)N[C@@H](CCCNC(=N)N)C(=O)N(C)[C@@H](CCCC)C(=O)N[C@@H](CCCCC)C(=O)N2CCC[C@H]2C(=O)N[C@@H](C(C)C)C(=O)N[C@@H](CO)C(=O)N[C@H](C(=O)NCC(=O)O)CSCC(=O)N[C@@H](Cc2ccccc2)C(=O)N[C@@H](Cc2c[nH]c3ccccc23)C(=O)N[C@@H](CC(=O)O)C1=O` [Example 1384] ({CH2CO}-FWD[NHexGly]Y[Ahp(2)]NR[NMeNle][Ahp(2)]PVSCG-OH; thioether N-14), 7.96.
For the compound `CCCCCCN1CC(=O)N[C@@H](Cc2ccc(O)cc2)C(=O)N[C@@H](CCCCC)C(=O)N[C@@H](CC(N)=O)C(=O)N[C@@H](CCCNC(=N)N)C(=O)N(C)[C@@H](CCCC)C(=O)N[C@@H](CCCCC)C(=O)N2CCC[C@H]2C(=O)N[C@@H](C(C)C)C(=O)N[C@@H](C(C)C)C(=O)N[C@H](C(=O)NCC(=O)O)CSCC(=O)N[C@@H](Cc2ccccc2)C(=O)N[C@@H](Cc2c[nH]c3ccccc23)C(=O)N[C@@H](CC(=O)O)C1=O` [Example 1385] ({CH2CO}-FWD[NHexGly]Y[Ahp(2)]NR[NMeNle][Ahp(2)]PVVCG-OH; thioether N-14), the pIC50 was 7.98.
In the case of `CCCCCCN1CC(=O)N[C@@H](Cc2ccc(O)cc2)C(=O)N[C@@H](CCCCC)C(=O)N[C@@H](CC(N)=O)C(=O)N[C@@H](CCCNC(=N)N)C(=O)N(C)[C@@H](CCCC)C(=O)N[C@@H](CCCCC)C(=O)N2CCC[C@H]2C(=O)N[C@@H](C(C)C)C(=O)N[C@@H](CC(=O)O)C(=O)N[C@H](C(=O)NCC(=O)O)CSCC(=O)N[C@@H](Cc2ccccc2)C(=O)N[C@@H](Cc2c[nH]c3ccccc23)C(=O)N[C@@H](CC(=O)O)C1=O` [Example 1386] ({CH2CO}-FWD[NHexGly]Y[Ahp(2)]NR[NMeNle][Ahp(2)]PVDCG-OH; thioether N-14) it was 8.06; in that of `CCCCCCN1CC(=O)N[C@@H](Cc2ccc(O)cc2)C(=O)N[C@@H](CCCC)C(=O)N[C@@H](CC(N)=O)C(=O)N[C@@H](CCCNC(N)=O)C(=O)N(C)[C@@H](CCCC)C(=O)N[C@@H](CCCCC)C(=O)N2CCC[C@H]2C(=O)N[C@@H](C(C)C)C(=O)N[C@@H](CC(=O)O)C(=O)N[C@H](C(=O)NCC(=O)O)CSCC(=O)N[C@@H](Cc2ccccc2)C(=O)N[C@@H](Cc2c[nH]c3ccccc23)C(=O)N[C@@H](CC(=O)O)C1=O` [Example 1387] ({CH2CO}-FWD[NHexGly]Y[Nle]N[Cit][NMeNle][Ahp(2)]PVDCG-OH; thioether N-14), 8.28.

The pIC50 is the IC50 on a negative log10 scale, so that one unit is a factor of ten.

The values are drawn from US20240218022A1, “ANTI-VISTA MACROCYCLIC PEPTIDES AND COMPOSITIONS” (BRISTOL-MYERS SQUIBB COMPANY, priority 2022, published 2024).
